Laboratory results taken from US7521478B2, “Total synthesis of myriaporones” (Pharma Mar, S.A.U., priority 2002, dated 2009).
Like-named read-outs stand apart in the source and are kept apart here.

What was measured:
Type in all cases: cell-based
[1] = tested on: HeLa-APL; experiment: Inhibition of cell growth by colorimetric SRB assay, HELA-APL; settings: Homo sapiens; for CC50: cell killing, read-out: LC50 (the source's name); for IC (total growth inhibition): read-out: TGI
Excerpt: (§1) The finality of these assays is to interrupt the growth of a “in vitro” tumor cell culture by means a continued exhibition of the cells to the sample to be testing.
(§2) Inhibition of Cell Growth by Colorimetric Assay.
(§3) A colorimetric type of assay, using sulforhodamine B (SRB) reaction has been adapted for a quantitative measurement of cell growth and viability (following the technique described by P. A. Skehan, et al., J. Natl. CancerInst. 1990, 82, 1107-1112).
(§4) This form of assay employs 96 well cell culture microplates of 9 mm diameter (T. Mosmann et al., J. of Immuological Methods 1983, 65, 55-63; G. T. Faircloth et al., J. of Tissue and Culture Methods 1988, 11, 201-205). Most of the cell lines are obtained from American Type Culture Collection (ATCC) derived from different human cancer types.
(§5) Cells are maintained in RPMI 1640 10% FBS, supplemented with 0.1 g/L penicillin and 0.1 g/L streptomycin sulfate and then incubated at 37° C., 5% CO2 and 98% humidity. For the experiments, cells were harvested from subconfluent cultures using trypsin and resuspended in fresh medium before plating.
(§6) Cells are seeded in 96 well microtiter plates, at 5×10^3 cells per well in aliquots of 195 μL medium, and they are allowed to attach to the plate surface by growing in drug free medium for 18 hours. Afterward, samples are added in aliquots of 5 μL in a ranging from 10 to 10^−8 μg/mL, dissolved in DMSO/EtOH/PBS (0.5:0.5:99). After 48 hours exposure, the antitumor effect are measured by the SRB methodology: cells are fixed by adding 50 μL of cold 50% (wt/vol) trichloroacetic acid (TCA) and incubated for 60 minutes at 4° C. Plates are washed with deionizer water and dried. One hundred μl of SRB solution (0.4% wt/vol in 1% acetic acid) is added to each microliter well and incubated for 10 minutes at room temperature. Unbound SRB is removed by washing with 1% acetic acid. Plates are air dried and bound stain is solubilized with Tris buffer. Optical densities are read on a automated spectrophotometric plate reader at a single wavelength of 490 nm.
(§7) The values for mean +/−SD of data from triplicate wells are calculated. Some parameters for cellular responses can be calculated: GI=growth inhibition, TGI=total growth inhibition (cytostatic effect) and LC=cell killing (cytotoxic effect).

[2] = tested on: HT-29; experiment: Inhibition of cell growth by colorimetric SRB assay, HT-29; settings: Homo sapiens, HT-29, 48 hours exposure; for CC50: cell killing, read-out: LC50 (the source's name); for IC (total growth inhibition): read-out: TGI
Excerpt: as §1, §2, §3, §4, §5, §6, §7

[3] = tested on: DU-145; experiment: Inhibition of cell growth by colorimetric SRB assay, DU-145; settings: Homo sapiens, DU-145, 48 hours exposure; for CC50: cell killing, read-out: LC50 (the source's name); for IC (total growth inhibition): read-out: TGI
Excerpt: as §1, §2, §3, §4, §5, §6, §7

[4] = tested on: LoVo; experiment: Inhibition of cell growth by colorimetric SRB assay, LOVO; settings: Homo sapiens, LOVO, 48 hours exposure; for LC50: cell killing, read-out: LC50; for IC (total growth inhibition): read-out: TGI
Excerpt: as §1, §2, §3, §4, §5, §6, §7

[5] = tested on: A-549; experiment: Inhibition of cell growth by colorimetric SRB assay, A-549; settings: Homo sapiens, A549, A-549, 48 hours exposure; for CC50: cell killing, read-out: LC50 (the source's name); for IC (total growth inhibition): read-out: TGI
Excerpt: as §1, §2, §3, §4, §5, §6, §7

[6] = tested on: SK-BR-3; experiment: Inhibition of cell growth by colorimetric SRB assay, SK-BR-3; settings: SK-BR-3, 48 hours exposure
Excerpt: as §1, §2, §3, §4, §5, §6, §7

[7] = tested on: PANC-1; experiment: Inhibition of cell growth by colorimetric SRB assay, PANC-1; settings: Homo sapiens, PANC-1, 48 hours exposure; for CC50: cell killing, read-out: LC50 (the source's name); for IC (total growth inhibition): read-out: TGI
Excerpt: as §1, §2, §3, §4, §5, §6, §7

[8] = tested on: K-562; experiment: Inhibition of cell growth by colorimetric SRB assay, K-562; settings: Homo sapiens, K562, K-562, 48 hours exposure; for CC50: cell killing, read-out: LC50 (the source's name); for IC (total growth inhibition): read-out: TGI
Excerpt: as §1, §2, §3, §4, §5, §6, §7

[9] = tested on: SK-MEL-28; experiment: Inhibition of cell growth by colorimetric SRB assay, MEL-28; settings: Homo sapiens, SK-MEL-28, MEL-28, 48 hours exposure; for CC50: cell killing, read-out: LC50 (the source's name); for IC (total growth inhibition): read-out: TGI
Excerpt: as §1, §2, §3, §4, §5, §6, §7

[10] = tested on: HeLa; experiment: Inhibition of cell growth by colorimetric SRB assay, HELA; settings: Homo sapiens, HELA, 48 hours exposure; for CC50: cell killing, read-out: LC50 (the source's name); for IC (total growth inhibition): read-out: TGI
Excerpt: as §1, §2, §3, §4, §5, §6, §7

[11] = tested on: LNCaP; experiment: Inhibition of cell growth by colorimetric SRB assay, LN-caP; settings: Homo sapiens, LN-caP, 48 hours exposure; for CC50: cell killing, read-out: LC50 (the source's name); for IC (total growth inhibition): read-out: TGI
Excerpt: as §1, §2, §3, §4, §5, §6, §7

[12] = tested on: LoVo-Dox; experiment: Inhibition of cell growth by colorimetric SRB assay, LOVO-DOX; settings: Homo sapiens, LOVO-DOX, 48 hours exposure; for LC50 (concentration for 50% cell killing): read-out: LC50; for IC (total growth inhibition): read-out: TGI
Excerpt: as §1, §2, §3, §4, §5, §6, §7

[13] = tested on: IGROV-ET; experiment: Inhibition of cell growth by colorimetric SRB assay, IGROV-ET; settings: Homo sapiens, IGROV-ET, 48 hours exposure; for CC50: cell killing, read-out: LC50 (the source's name); for IC (total growth inhibition): read-out: TGI
Excerpt: as §1, §2, §3, §4, §5, §6, §7

[14] = tested on: IGROV; experiment: Inhibition of cell growth by colorimetric SRB assay, IGROV; settings: Homo sapiens, 48 hours exposure; for CC50: cell killing, read-out: LC50 (the source's name); for IC (total growth inhibition): read-out: TGI
Excerpt: as §1, §2, §3, §4, §5, §6, §7

## C/C=C\[C@H](C)[C@H]1O[C@@]1(C)[C@@H](O)[C@@H](CO)C(=O)[C@H](CO)[C@@H](O)CC(=O)CC [3a + 4a]
[1]; HELA-APL, 48 hours exposure
  CC50: 14.7 µM
[1]; HELA-APL, 48 hours exposure, read-out: GI50
  GI50: 0.0733 µM
[1]; HELA-APL, 48 hours exposure, total growth inhibition
  IC (total growth inhibition): 0.983 µM
[2]
  GI50: 0.0601 µM
  CC50: 26.8 µM
  IC (total growth inhibition): 1.18 µM
[3]
  GI50: 0.0631 µM
  CC50: 2.03 µM
  IC (total growth inhibition): 0.403 µM
[4]
  GI50: 0.0822 µM
  LC50: 17.7 µM
  IC (total growth inhibition): 1.35 µM
[5]
  GI50: 0.144 µM
  CC50: 15.6 µM
  IC (total growth inhibition): 2.59 µM
[6]; Homo sapiens
  GI50: 0.0303 µM
[6]; Homo sapiens, cell killing, read-out: LC50 (the source's name)
  CC50: 5.34 µM
[6]; total growth inhibition
  TGI: 4.75E−07 Molar
[7]
  GI50: 0.0897 µM
  CC50: 26.8 µM
  IC (total growth inhibition): 2.95 µM
[8]
  GI50: 0.521 µM
  CC50: 8.4 µM
  IC (total growth inhibition): 1.46 µM
[9]
  GI50: 0.0754 µM
  CC50: 12 µM
  IC (total growth inhibition): 0.832 µM
[10]
  GI50: 0.0728 µM
  CC50: 7.14 µM
  IC (total growth inhibition): 0.55 µM
[11]
  GI50: 0.0819 µM
  CC50: 5.32 µM
  IC (total growth inhibition): 0.553 µM
[12]
  GI50: 0.152 µM
  LC50 (concentration for 50% cell killing): 26.8 µM
  IC (total growth inhibition): 1.36 µM
[13]
  GI50: 0.1 µM
  CC50: 26.8 µM
  IC (total growth inhibition): 1.07 µM
[14]
  GI50: 0.073 µM
  CC50: 3.92 µM
  IC (total growth inhibition): 0.376 µM

## C/C=C\[C@H](C)[C@H]1OC1(C)[C@@H](O[Si](C)(C)C(C)(C)C)[C@@H](COC(C)=O)C(=O)[C@H](COC(C)=O)[C@H](O)CC(=O)CC (stereo partly drawn) [Compound 44]
[1]; 48 h
  GI50: 3.77 µM
  IC (total growth inhibition): 9.83 µM
[1]; HELA-APL, 48 hours exposure
  CC50: 17.5 µM
[2]
  GI50: 6.22 µM
  CC50: 17 µM
  IC (total growth inhibition): 17.5 µM
[3]
  GI50: 4.99 µM
  CC50: 17.5 µM
  IC (total growth inhibition): 10.4 µM
[4]
  GI50: 4.05 µM
  LC50: 17.5 µM
  IC (total growth inhibition): 8.99 µM
[5]
  GI50: 4.01 µM
  CC50: 15.4 µM
  IC (total growth inhibition): 7.87 µM
[7]
  GI50: 3.73 µM
  CC50: 13.8 µM
  IC (total growth inhibition): 7.2 µM
[8]
  GI50: 6.1 µM
  CC50: 17.5 µM
  IC (total growth inhibition): 11.4 µM
[9]
  GI50: 3.84 µM
  CC50: 12.6 µM
  IC (total growth inhibition): 6.96 µM
[10]
  GI50: 3.91 µM
  CC50: 14.7 µM
  IC (total growth inhibition): 7.59 µM
[11]
  GI50: 3.77 µM
  CC50: 16.6 µM
  IC (total growth inhibition): 7.88 µM
[12]
  GI50: 4.27 µM
  LC50 (concentration for 50% cell killing): 17.5 µM
  IC (total growth inhibition): 8.9 µM
[13]
  GI50: 4.15 µM
  CC50: 15.8 µM
  IC (total growth inhibition): 8.09 µM
[14]
  GI50: 4.13 µM
  CC50: 14.2 µM
  IC (total growth inhibition): 7.67 µM
